“Also recorded” adds a separate entry of the source.
Assays:
Empoasca leafhoppers = assay: In vivo Empoasca choice assay, compounds infiltrated into irMYC2 leaves; set-up: species or system Empoasca decipiens; conditions: synthetic CoP 7 μM, CP 100 μM, FP 10 μM in 0.1% DMSO infiltrated into irMYC2 leaves
Protocol: The spermi-dine-derived metabolites could be excluded as mediators of Empoasca nonhost resistance based on the lack of responses of leafhoppers to the irDH29 and irCV86 lines (FIG. 5). To further explore the involvement of CoP, CP and FP, in vivo Empoasca choice assays were conducted by individually infiltrating physiologically relevant concentrations of synthetic CoP (7 μM), CP (100 μM) and FP (10 μM) into leaves of irMYC2 plants which were devoid of elicited phenolamides (FIG. 9 and FIG. 34).
Two replicates of the 650 RILs from a 26-parent MAGIC population and their 26 parental 5 lines were planted at the WCCER field station, Prescott, Arizona, USA. To elicit a standardized herbivory response, leaves of all RILs, which were in the early-flowering stage were wounded and immediately treated with diluted Manduca sexta oral secretions (W+OS) or left untreated (control) and harvested on dry ice at 1 h and 72h. One week after metabolite sampling, all plants of the field population were screened for natural Empoasca leafhopper numbers and damage; these leafhoppers had opportunistically sampled the N. attenuata plants from neighboring native cu-cumber hostplants. The mQTL and eQTL mapping between SNPs and the relative abundance of each compound or transcript using a set of 646 RILs of the MAGIC population was done with the R package software GAPIT using General linear models (GLM). The multi-omics co-association network was built from correlations among metabolomes, transcriptomes, phytohormones and SNPs. […] Metabolome diversity and specialization and metabolic specificity was calculated using information theory by consider-ing the Shannon entropy of the idMS/MS frequency distributions. […] OS-induced volatile emissions were collected using polydimethylsiloxane (PDMS) tubing from 650 MAGIC RILs planted in the main MPI-CE glasshouse and analyzed bythermal desorption-gas chromatography-mass spectrometry (TD-GC-MS). […]

NaPPO2 = NaPPO2 (Nicotiana attenuata, UniProt A0A1J6IKE9); assay: In vitro enzyme assay, substrate specificity of NaPPO2; assay type: biochemical; conditions: incubated with NaPPO2 and (Z)-3-hexenal
From the text: Extracted ion chromatograms (EIC) for doubly charged CP dimer (m/z 250.13) and m/z 347.19 in E. coli expressing NaPPO1 and NaPPO2 with CP and Z3H or (E)-2-hexenal. Compounds 1, 2, 3, 4 denote isomers of CP dimer; compounds 5, 6 denote isomers of m/z 347.19.
FIG. 53 Substrate specificity of NaPPO1 and NaPPO2 enzymes. Overlay of total ion chromatograms (TIC) of enzyme assays for authentic chlorogenic acid (CGA std), N-coumaroylputrescine (CoP std), (Z)-3-hexenal or (E)-2-hexenal with purified NaPPO1/NaPPO2 from E. coli. Compounds 1 and 2 denote CGA and CoP; 3 and 4 denote contamination peaks from (Z)-3-hexenal and CoP standards, respectively.
To test this hypothesis, purified NaPPO1, NaPPO2 and NaBBL2 proteins with N-terminal hexahistidine tags after expression in Escherichia coli were isolated (FIGS. 44-45). Incubation of either NaPPO1 or NaPPO2 (NaPPO1/2) with CP and (Z)-3-hexenal yielded a m/z 347.19 peak with identical MS/MS spectrum and retention time as the m/z 347.19 induced in N. attenuata leaves (FIG. 46). Additionally, by-products of doubly charged CP dimers at m/z 250.13 ([M+2H]2+, C26H36N4O62+) which are not detected in oral secretion-induced leaves of N. attenuata WT (Data 2) were also produced in vitro (FIG. 16 and FIG. 47). These doubly charged CP dimers were only produced when the quantities of the (Z)-3-hexenal substrate were lower than those of the CP substrate in vitro. […]
In vitro assays of NaPPO1, NaPPO2, and NaBBL2: NaPPO1, NaPPO2, and NaBBL2 enzyme activity assays were performed by incubating 100 μg of the purified recombinant protein in 84 mM acetate buffer (pH 4.8) containing 20 mM (E)-N-caffeoylputrescine (BOC Sciences, catalogue #: B0005-053482) and 1 M cis-3-hexenal (Sigma, catalogue #: W256102-SAMPLE-K) or trans-2-hexenal (Sigma, catalogue #: W256005-1KG-K). During incubation of the enzyme reactions at 8° C., 1 μL of the reactions buffer was directly injected and analyzed by LC-MS every h to detect products. […]

Sequence of NaPPO2 (A0A1J6IKE9 entry or part of it): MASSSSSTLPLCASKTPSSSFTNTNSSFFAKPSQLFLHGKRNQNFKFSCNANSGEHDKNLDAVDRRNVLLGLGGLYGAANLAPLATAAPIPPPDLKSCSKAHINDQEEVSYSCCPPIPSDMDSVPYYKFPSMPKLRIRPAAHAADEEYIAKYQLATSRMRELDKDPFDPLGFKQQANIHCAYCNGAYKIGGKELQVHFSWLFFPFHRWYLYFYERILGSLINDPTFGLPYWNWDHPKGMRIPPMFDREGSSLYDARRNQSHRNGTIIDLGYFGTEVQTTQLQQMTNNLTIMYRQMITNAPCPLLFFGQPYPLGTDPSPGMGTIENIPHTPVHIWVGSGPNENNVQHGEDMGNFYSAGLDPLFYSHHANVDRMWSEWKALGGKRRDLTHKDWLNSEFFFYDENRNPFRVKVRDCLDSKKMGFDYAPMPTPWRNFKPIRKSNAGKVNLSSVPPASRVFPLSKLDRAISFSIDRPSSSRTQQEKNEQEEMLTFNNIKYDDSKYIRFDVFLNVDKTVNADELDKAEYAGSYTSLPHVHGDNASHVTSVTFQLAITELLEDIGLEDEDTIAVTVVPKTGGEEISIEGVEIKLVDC

## N-coumaroylputrescine [CoP]
Empoasca leafhoppers
  preference of Empoasca for irMYC2 plants: did not alter the preference; also recorded: not affecting leafhopper behavior or performance
NaPPO2
  acceptance as substrate (new products): not accepted as substrates

From US20250051266A1, “Novel GLV-Phenolamide: Biosynthesis and Function in Protecting Plants from Herbivore Attack” (Max-Planck-Gesellschaft zur Förderung der Wissenschaften …, priority 2021, published 2025)
